From patent US20230159469A1, “NOVEL PHTHALAZINE DERIVATIVE HAVING ECTONUCLOEOTIDE PYROPHOSPHATASE/PHOSPHODIESTE RASE INHIBITORY ACTIVITY, AND USE THEREOF” (TXINNO BIOSCIENCE INC., priority 2020, published 2023)
pIC50: −log10 of the molar value. Structures can show the parent of a compound that is named as a salt.

target: T1, human recombinant ENPP1 (Homo sapiens, UniProt P22413); assay: ENPP1 enzyme assay with cGAMP substrate (AMP-Glo luminescence); type: biochemical; details: human recombinant ENPP1 3 ng/reaction, cGAMP 5 μM, 37° C. 90 minutes, read-out: Enzymatic activity (ENPP1 IC50)
T1 construct: purchased R & D systems
T1 sequence (P22413 1-925): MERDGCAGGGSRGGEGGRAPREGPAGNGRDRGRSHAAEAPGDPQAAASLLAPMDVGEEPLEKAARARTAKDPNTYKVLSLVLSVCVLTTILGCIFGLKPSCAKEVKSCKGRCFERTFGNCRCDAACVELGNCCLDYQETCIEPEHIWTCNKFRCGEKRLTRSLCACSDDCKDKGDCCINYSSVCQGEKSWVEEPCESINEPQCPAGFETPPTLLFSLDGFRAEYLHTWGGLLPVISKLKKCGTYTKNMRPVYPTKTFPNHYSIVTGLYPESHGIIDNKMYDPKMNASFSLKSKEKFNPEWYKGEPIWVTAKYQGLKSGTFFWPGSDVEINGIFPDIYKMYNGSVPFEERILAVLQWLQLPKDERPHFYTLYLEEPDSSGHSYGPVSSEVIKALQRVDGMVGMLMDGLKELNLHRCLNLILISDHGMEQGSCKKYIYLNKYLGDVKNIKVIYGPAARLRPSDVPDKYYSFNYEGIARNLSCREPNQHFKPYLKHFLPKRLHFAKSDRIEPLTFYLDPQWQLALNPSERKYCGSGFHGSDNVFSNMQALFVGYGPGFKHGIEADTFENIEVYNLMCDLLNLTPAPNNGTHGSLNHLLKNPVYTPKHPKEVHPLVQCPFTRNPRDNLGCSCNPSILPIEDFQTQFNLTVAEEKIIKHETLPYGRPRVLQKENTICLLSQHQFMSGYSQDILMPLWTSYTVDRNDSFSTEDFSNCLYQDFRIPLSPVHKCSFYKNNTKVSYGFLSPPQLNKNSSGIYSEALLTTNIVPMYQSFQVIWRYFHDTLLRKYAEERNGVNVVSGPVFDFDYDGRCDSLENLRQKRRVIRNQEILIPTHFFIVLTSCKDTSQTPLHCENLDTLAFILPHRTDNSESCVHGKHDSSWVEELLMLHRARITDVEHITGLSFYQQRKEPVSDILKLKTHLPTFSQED
Experimental: ENPP1 hydrolyzes nucleotides or nucleotide derivatives to produce nucleoside -5′-monophosphate and pyrophosphate. in addition, ENPP1 hydrolyzes 2′,3′-cGAMP to produce 5′-adenosine monophosphate (AMP) and 5′-guanosine monophosphate (GMP). AMP produced from the reaction is measured using the AMP-Glo® kit (Promega). The AMP-Glo® kit contains two reagents. The first reagent terminates the AMP-producing enzymatic reaction, removes ATP and converts the produced AMP into ADP. The second reagent converts ADP to ATP which is used to generate luminescence in the luciferase reaction. The amount of luminescence measured is proportional to the amount of AMP produced by ENPP1.
The final reaction mixture contains 50 mM Tris (pH 8.5) buffer, 250 mM NaCl, 0.5 mM. CaCl2, 1 μM ZnCl2, 5% glycerol and 1% DMSO. […] The reaction was initiated by addition of cGAMP (at a final concentration of 5 μM) and reacted at 37° C. for 90 minutes. At the end of the reaction, 10 μl of the AMP-Glo first reagent was added to stop the reaction and the result was stored at room temperature for […]. After storage, 20 μl of an AMP detection solution (a mixture of AMP-Glo II reagent and Kinase-Gio at a ratio of 1:100) was added and stored at room. temperature for 1 hour. Luminescence signals were measured using a Victor® plate reader (Perkin Elmer). The maximal activity control (containing enzymes and substrates only in the presence of 1% DMSO; MAX) and the minimal activity control (containing substrates and 1% DMSO; MIN) were evaluated simultaneously. In each experiment, serially diluted reference ENPP1 inhibitors were tested together. IC50, indicating % residual activity versus compound concentration was determined by fitting inhibition curves using the 3-parameter analysis of GraphPad Prism® software. Serially diluted samples of one compound were tested two or more times and an average IC50 of each compound was calculated.

SMILES | pIC50
CC(C)(C)OC(=O)NS(=O)(=O)NCc1ccc(-c2nn(Cc3ccc(F)cc3)c(=O)c3ccccc23)cc1 [Compound No. 71, tert-butyl (N-(4-(3-(4-fluorobenzyl)-4-oxo-3,4-dihydrophthalazin-1-yl)benzyl)sulfamoyl)carbamate] | < 5.00
COc1ccc2c(=O)[nH]nc(-c3ccc(CNS(=O)(=O)NC(=O)OC(C)(C)C)cc3)c2c1 [Compound No. 72] | < 5.00
COc1ccc2c(=O)n(C)nc(-c3ccc(CNS(=O)(=O)NC(=O)OC(C)(C)C)cc3)c2c1 [Compound No. 73, tert-butyl N-(4-(7-methoxy-3-methyl-4-oxo-3,4-dihydrophthalazin-1-yl)benzyl)sulfamoyl carbamate] | < 5.00
CC(C)(C)OC(=O)NS(=O)(=O)NCc1ccc(-c2n[nH]c(=O)c3ccccc23)cc1C(F)(F)F [Compound No. 81, tert-butyl N-(4-(4-oxo-3,4-dihydrophthalazin-1-yl)-2-(trifluoromethyl)benzyl)sulfamoyl carbamate] | < 5.00
CC(C)(C)OC(=O)NS(=O)(=O)N1CCc2cc(-c3n[nH]c(=O)c4ccccc34)ccc2C1 [Compound No. 83, tert-butyl ((6-(4-oxo-3,4-dihydrophthalazin-1-yl)-3,4-dihydroisoquinolin-2(1H)-yl)sulfonyl)carbamate] | < 5.00
Cn1nc(-c2ccc3c(c2)CCN(S(=O)(=O)NC(=O)OC(C)(C)C)C3)c2ccccc2c1=O [Compound No. 84, tert-butyl ((6-(3-methyl-4-oxo-3,4-dihydrophthalazin-1-yl)-3,4-dihydroisoquinolin-2(1H)-yl)sulfonyl)carbamate] | < 5.00
COc1cc2c(-c3ccc4c(c3)CCN(S(=O)(=O)NC(=O)OC(C)(C)C)C4)n[nH]c(=O)c2cc1OC [Compound No. 85, tert-butyl ((6-(6,7-dimethoxy-4-oxo-3,4-dihydrophthalazin-1-yl)-3,4-dihydroisoquinolin-2(1H)-yl)sulfonyl)carbamate] | < 5.00
NS(=O)(=O)NCc1cccc(-c2nn(Cc3ccccc3)c(=O)c3ccccc23)c1 [Compound No. 90, N-(3-(3-benzyl-4-oxo-3,4-dihydrophthalazin-1-yl)benzyl)sulfamide hydrochloride] | < 5.00

Continued, values first:

pIC50 | SMILES
< 5.00 | CCn1nc(-c2ccc(CNS(=O)(=O)NC(=O)OC(C)(C)C)cc2)c2ccccc2c1=O [Compound No. 67, tert-butyl (N-(4-(3-ethyl-4-oxo-3,4-dihydrophthalazin-1-yl)benzyl)sulfamoyl)carbamate]
< 5.00 | CC(C)(C)OC(=O)NS(=O)(=O)NCc1ccc(-c2nn(-c3ccccc3)c(=O)c3ccccc23)cc1 [Compound No. 69, tert-butyl (N-(4-(4-oxo-3-phenyl-3,4-dihydrophthalazin-1-yl)benzyl)sulfamoyl)carbamate]
< 5.00 | CC(C)(C)OC(=O)NS(=O)(=O)NCc1ccc(-c2nn(Cc3ccccc3)c(=O)c3ccccc23)cc1 [Compound No. 70]
5.00 to 6.00 | COc1cc2c(-c3ccc(CNS(=O)(=O)NC(=O)OC(C)(C)C)cc3)n[nH]c(=O)c2cc1OC [Compound No. 76, tert-butyl (N-(4-(6,7-dimethoxy-4-oxo-3,4-dihydrophthalazin-1-yl)benzyl)sulfamoyl)carbamate]
5.00 to 6.00 | COc1cc2c(-c3ccc(CNS(=O)(=O)NC(=O)OC(C)(C)C)cc3)nn(C)c(=O)c2cc1OC [Compound No. 77, tert-butyl (N-(4-(6,7-dimethoxy-3-methyl-4-oxo-3,4-dihydrophthalazin-1-yl)benzyl)sulfamoyl)carbamate]
> 6.00 | Cn1nc(-c2cccc(NS(N)(=O)=O)c2)c2ccccc2c1=O [Compound No. 88, N-(3-(3-methyl-4-oxo-3,4-dihydrophthalazin-1-yl)phenyl)sulfamide hydrochloride]
> 6.00 | NS(=O)(=O)Nc1cccc(-c2nn(Cc3ccccc3)c(=O)c3ccccc23)c1 [Compound No. 89, N-(3-(3-benzyl-4-oxo-3,4-dihydrophthalazin-1-yl)phenyl)sulfamide hydrochloride]
